The source made the active and inactive calls. No cut-off for these calls is given here.

The nature of assay [1]: Cytotoxicity against human C4-2B cells after 5 days by CellTitre Glo assay. It is filed as functional, cell-based. As to conditions: LNCaP C4-2B, 120 h.
The subject of assay [2] is SK-OV-3. Nature of the assay: Cytotoxicity against human SKOV3 cells at 100 uM by MTS assay. Type of assay: functional, cell-based. (Tetrazolium assays rely on reduction of a dye to a coloured formazan, in cell work by metabolically active cells.)
The target in assay [3] is Neurotensin receptor type 2 (Homo sapiens, UniProt O95665). The experiment in a line: Binding affinity to NTR2 (unknown origin).
Sequence of Neurotensin receptor type 2 (O95665 whole entry): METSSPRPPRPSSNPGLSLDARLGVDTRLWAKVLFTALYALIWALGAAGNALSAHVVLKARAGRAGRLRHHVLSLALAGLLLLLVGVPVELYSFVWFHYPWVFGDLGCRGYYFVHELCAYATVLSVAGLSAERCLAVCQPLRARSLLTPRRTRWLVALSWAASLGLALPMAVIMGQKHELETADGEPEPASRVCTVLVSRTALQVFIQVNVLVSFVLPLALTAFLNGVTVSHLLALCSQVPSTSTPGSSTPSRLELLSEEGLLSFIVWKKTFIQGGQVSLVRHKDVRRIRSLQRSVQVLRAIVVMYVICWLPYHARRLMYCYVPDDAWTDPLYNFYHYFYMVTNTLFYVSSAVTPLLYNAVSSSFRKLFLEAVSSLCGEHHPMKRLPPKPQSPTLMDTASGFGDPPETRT
A further assay concerns the target T1, Sortilin (Homo sapiens, UniProt Q99523).
T1 sequence (Q99523 whole entry): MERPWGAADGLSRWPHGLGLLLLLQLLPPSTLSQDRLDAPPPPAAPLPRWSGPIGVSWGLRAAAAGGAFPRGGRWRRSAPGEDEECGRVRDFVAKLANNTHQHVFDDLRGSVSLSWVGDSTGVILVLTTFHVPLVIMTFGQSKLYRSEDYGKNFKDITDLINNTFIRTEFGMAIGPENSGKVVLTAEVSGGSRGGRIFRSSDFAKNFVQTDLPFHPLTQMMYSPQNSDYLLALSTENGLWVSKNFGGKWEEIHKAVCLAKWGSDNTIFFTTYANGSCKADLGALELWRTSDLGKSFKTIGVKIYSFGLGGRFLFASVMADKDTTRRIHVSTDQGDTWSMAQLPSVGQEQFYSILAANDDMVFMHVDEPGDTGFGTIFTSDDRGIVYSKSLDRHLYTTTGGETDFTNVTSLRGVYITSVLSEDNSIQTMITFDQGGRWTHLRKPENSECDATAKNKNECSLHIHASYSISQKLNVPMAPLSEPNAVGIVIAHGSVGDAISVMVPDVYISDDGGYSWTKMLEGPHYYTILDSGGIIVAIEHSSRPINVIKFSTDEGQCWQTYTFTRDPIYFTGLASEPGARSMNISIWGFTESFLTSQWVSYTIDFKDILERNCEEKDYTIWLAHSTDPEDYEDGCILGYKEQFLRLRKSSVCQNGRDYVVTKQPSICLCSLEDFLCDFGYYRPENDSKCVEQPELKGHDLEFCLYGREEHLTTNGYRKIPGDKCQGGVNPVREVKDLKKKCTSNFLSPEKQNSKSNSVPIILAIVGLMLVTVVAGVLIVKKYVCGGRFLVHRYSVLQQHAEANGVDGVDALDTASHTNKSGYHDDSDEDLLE
The experiment in a line: Binding affinity to NTR3 (unknown origin).

Assay [4] relates to LNCaP. Nature of the assay: Cytotoxicity against human biculamide-resistant LNCAP cells at >/= 50 uM after 5 days by CellTitre Glo assay. It is filed as functional, cell-based.
Assay [5] has as its target Neurotensin receptor type 1 (Rattus norvegicus, UniProt P20789). Nature of the assay: Displacement of [125I]NT from rat NTR1 transfected in mouse LTK cells. It is filed as cell-based.
For assay [6], the system named is LNCaP. Nature of the assay: Cytotoxicity against human LNCAP cells at >/= 50 uM after 5 days by CellTitre Glo assay. Type of assay: functional, cell-based.
The subject of another assay is LNCaP C4-2B. Nature of the assay: Cytotoxicity against human C4-2B cells at >/= 50 uM after 5 days by CellTitre Glo assay. Type of assay: functional, cell-based.
Assay [7] relates to SK-OV-3. The experiment in a line: Cytotoxicity against human SKOV3 cells at < 100 uM by MTS assay. It is filed as functional, cell-based.

Sequence of Neurotensin receptor type 1 (P20789 whole entry): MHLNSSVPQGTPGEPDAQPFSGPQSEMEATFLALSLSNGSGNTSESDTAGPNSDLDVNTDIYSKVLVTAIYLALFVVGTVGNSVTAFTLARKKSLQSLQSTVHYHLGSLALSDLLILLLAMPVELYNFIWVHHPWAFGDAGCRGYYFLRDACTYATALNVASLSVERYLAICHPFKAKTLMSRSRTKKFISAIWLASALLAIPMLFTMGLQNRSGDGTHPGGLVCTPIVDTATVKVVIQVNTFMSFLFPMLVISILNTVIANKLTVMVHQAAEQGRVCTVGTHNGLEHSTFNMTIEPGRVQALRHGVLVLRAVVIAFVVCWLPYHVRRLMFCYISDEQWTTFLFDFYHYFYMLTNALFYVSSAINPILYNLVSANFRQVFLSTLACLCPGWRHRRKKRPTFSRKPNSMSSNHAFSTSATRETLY

Broadly, the IC50 is the concentration that gives 50% inhibition. A low value points to greater potency in that assay. A word on the Ki: it is a measure of affinity in units of concentration, obtained from inhibition or displacement. On to `COc1cccc(OC)c1-c1cc(C(=O)NC2(C(=O)O)C3CC4CC(C3)CC2C4)nn1-c1ccnc2cc(Cl)ccc12` (centres undefined) [REMINERTANT], for which the IC50 in assay [1] was 30000 nM; on Sortilin, 238 nM. The outcome with SK-OV-3 [2], in the assay on LNCaP [4], in the assay on LNCaP [6] and in the assay on LNCaP C4-2B was Active. The Ki in [3] was 418 nM; in assay [5], 2.6 nM. For the same compound, in the assay with SK-OV-3 [7], the result was inactive.

Values taken from ChEMBL document CHEMBL2401662, “The synthesis of neurotensin antagonist SR 48692 for prostate cancer research” (Bioorg Med Chem, 2013).
